This passage reports MIC results from PMC12121777 (PLOS One, 2025).

In brackets after ≈: the same amount, converted by molar mass. Like-named read-outs stand apart in the source and are kept apart here.

Holding throughout (experiment): microbe, parasite or virus in culture
What all share (format): cell-based

One assay has as its system Mtb 7357/1998. The following applies: Mycobacterium tuberculosis, read-out: MIC Mtb 7357/1998.
In a further assay the test system is Mtb 9449/2007. The following applies: Mycobacterium tuberculosis, read-out: MIC Mtb 9449/2007.
Another assay has as its system Mtb 8666/2010. The following applies: Mycobacterium tuberculosis, read-out: MIC Mtb 8666/2010.
The subject of the next assay is Mtb 234/2005. The following applies: Mycobacterium tuberculosis, read-out: MIC Mtb 234/2005.
A further assay has as its system Mtb Praha 4. The following applies: Mycobacterium tuberculosis, read-out: MIC Mtb Praha 4.
A further assay concerns Mtb Praha 131. The following applies: Mycobacterium tuberculosis, read-out: MIC Mtb Praha 131.
The test system of a further assay is Mtb Praha 1. The following applies: Mycobacterium tuberculosis, read-out: MIC Mtb Praha 1.

Consider `CCCCCCCCCNc1nnc(-c2cc([N+](=O)[O-])cc([N+](=O)[O-])c2)o1` [Compound 5i, 5-(3,5-Dinitrophenyl)-N-nonyl-1,3,4-oxadiazol-2-amine], for which the MIC in the assay on Mtb 7357/1998 (7357/1998, 336 h) was 0.125 µM (≈ 0.0472 µg/mL); with Mtb 7357/1998 (7357/1998, 504 h), 0.125 µM (≈ 0.0472 µg/mL); in the assay on Mtb 9449/2007 (9449/2007, 336 h), 0.06 µM (≈ 0.0226 µg/mL); in the assay on Mtb 9449/2007 (9449/2007, 504 h), 0.06 µM (≈ 0.0226 µg/mL); in the assay with Mtb 8666/2010 (8666/2010, 336 h), 0.06 µM (≈ 0.0226 µg/mL); with Mtb 8666/2010 (8666/2010, 504 h), 0.06 µM (≈ 0.0226 µg/mL). For the same compound, the MIC with Mtb 234/2005 (234/2005, 336 h) is 0.125 µM (≈ 0.0472 µg/mL); in the assay on Mtb 234/2005 (234/2005, 504 h), 0.125 µM (≈ 0.0472 µg/mL); in the assay with Mtb Praha 4 (PRAHA4, 336 h), 0.125 µM (≈ 0.0472 µg/mL); with Mtb Praha 4 (PRAHA4, 504 h) it was 0.125 µM (≈ 0.0472 µg/mL); in the assay with Mtb Praha 131 (PRAHA131, 336 h), 0.06 µM (≈ 0.0226 µg/mL); with Mtb Praha 131 (PRAHA131, 504 h), 0.06 µM (≈ 0.0226 µg/mL). Also, the MIC in the assay on Mtb Praha 1 (PRAHA1, 336 h) worked out at 0.125 µM (≈ 0.0472 µg/mL); in the assay on Mtb Praha 1 (PRAHA1, 504 h) it was 0.125 µM (≈ 0.0472 µg/mL).
For `CCCCCCCCCNC(=O)NNC(=O)c1cc([N+](=O)[O-])cc([N+](=O)[O-])c1` [Compound 4i, 2-(3,5-Dinitrobenzoyl)-N-nonylhydrazine-1-carboxamide], the MIC in the assay with Mtb 7357/1998 (7357/1998, 336 h) amounted to 1 µM (≈ 0.395 µg/mL); in the assay with Mtb 7357/1998 (7357/1998, 504 h), 1 µM (≈ 0.395 µg/mL); in the assay on Mtb 9449/2007 (9449/2007, 336 h) it was 1 µM (≈ 0.395 µg/mL); in the assay with Mtb 9449/2007 (9449/2007, 504 h) it was 1 µM (≈ 0.395 µg/mL); in the assay on Mtb 8666/2010 (8666/2010, 336 h), 1 µM (≈ 0.395 µg/mL); in the assay with Mtb 8666/2010 (8666/2010, 504 h), 1 µM (≈ 0.395 µg/mL). Also, the MIC worked out at 1 µM (≈ 0.395 µg/mL) in the assay with Mtb 234/2005 (234/2005, 336 h); 2 µM (≈ 0.791 µg/mL) in the assay on Mtb 234/2005 (234/2005, 504 h); 1 µM (≈ 0.395 µg/mL) in the assay on Mtb Praha 4 (PRAHA4, 336 h); 1 µM (≈ 0.395 µg/mL) with Mtb Praha 4 (PRAHA4, 504 h); 1 µM (≈ 0.395 µg/mL) with Mtb Praha 131 (PRAHA131, 336 h); 2 µM (≈ 0.791 µg/mL) in the assay on Mtb Praha 131 (PRAHA131, 504 h). The MIC with Mtb Praha 1 (PRAHA1, 336 h) was 1 µM (≈ 0.395 µg/mL); with Mtb Praha 1 (PRAHA1, 504 h), 2 µM (≈ 0.791 µg/mL).
With `CCCCCCCCNC(=O)NNC(=O)c1cc([N+](=O)[O-])cc([N+](=O)[O-])c1` [Compound 4h, 2-(3,5-Dinitrobenzoyl)-N-octylhydrazine-1-carboxamide], the MIC turned out to be 1 µM (≈ 0.381 µg/mL) with Mtb 7357/1998 (7357/1998, 336 h); 1 µM (≈ 0.381 µg/mL) in the assay with Mtb 7357/1998 (7357/1998, 504 h); 1 µM (≈ 0.381 µg/mL) with Mtb 9449/2007 (9449/2007, 336 h); 1 µM (≈ 0.381 µg/mL) in the assay on Mtb 9449/2007 (9449/2007, 504 h); 1 µM (≈ 0.381 µg/mL) in the assay on Mtb 8666/2010 (8666/2010, 336 h); 1 µM (≈ 0.381 µg/mL) with Mtb 8666/2010 (8666/2010, 504 h). For the same compound, the MIC in the assay with Mtb 234/2005 (234/2005, 336 h) stood at 1 µM (≈ 0.381 µg/mL); in the assay on Mtb 234/2005 (234/2005, 504 h) it was 1 µM (≈ 0.381 µg/mL); in the assay with Mtb Praha 4 (PRAHA4, 336 h) it was 1 µM (≈ 0.381 µg/mL); in the assay on Mtb Praha 4 (PRAHA4, 504 h) it was 1 µM (≈ 0.381 µg/mL); in the assay on Mtb Praha 131 (PRAHA131, 336 h), 1 µM (≈ 0.381 µg/mL); with Mtb Praha 131 (PRAHA131, 504 h), 1 µM (≈ 0.381 µg/mL). The MIC with Mtb Praha 1 (PRAHA1, 336 h) is 1 µM (≈ 0.381 µg/mL); with Mtb Praha 1 (PRAHA1, 504 h), 1 µM (≈ 0.381 µg/mL).
In the case of `CCCCCCCCCCCNc1nnc(-c2cc([N+](=O)[O-])cc([N+](=O)[O-])c2)o1` [Compound 5k, 5-(3,5-Dinitrophenyl)-N-undecyl-1,3,4-oxadiazol-2-amine], the MIC in the assay on Mtb 7357/1998 (7357/1998, 336 h) amounted to 0.25 µM (≈ 0.101 µg/mL); with Mtb 7357/1998 (7357/1998, 504 h) it was 0.5 µM (≈ 0.203 µg/mL); in the assay with Mtb 9449/2007 (9449/2007, 336 h), 0.25 µM (≈ 0.101 µg/mL); with Mtb 9449/2007 (9449/2007, 504 h) it was 0.5 µM (≈ 0.203 µg/mL); in the assay on Mtb 8666/2010 (8666/2010, 336 h) it was 0.25 µM (≈ 0.101 µg/mL); in the assay with Mtb 8666/2010 (8666/2010, 504 h), 0.5 µM (≈ 0.203 µg/mL). In addition, the MIC amounted to 0.25 µM (≈ 0.101 µg/mL) in the assay with Mtb 234/2005 (234/2005, 336 h); 0.5 µM (≈ 0.203 µg/mL) in the assay on Mtb 234/2005 (234/2005, 504 h); 0.25 µM (≈ 0.101 µg/mL) with Mtb Praha 4 (PRAHA4, 336 h); 0.5 µM (≈ 0.203 µg/mL) in the assay with Mtb Praha 4 (PRAHA4, 504 h); 0.25 µM (≈ 0.101 µg/mL) in the assay with Mtb Praha 131 (PRAHA131, 336 h); 0.5 µM (≈ 0.203 µg/mL) in the assay with Mtb Praha 131 (PRAHA131, 504 h). For the same compound, the MIC in the assay with Mtb Praha 1 (PRAHA1, 336 h) was determined as 0.25 µM (≈ 0.101 µg/mL); in the assay on Mtb Praha 1 (PRAHA1, 504 h), 0.5 µM (≈ 0.203 µg/mL).
`CCCCCCCCNc1nnc(-c2cc([N+](=O)[O-])cc([N+](=O)[O-])c2)o1` [Compound 5h, 5-(3,5-Dinitrophenyl)-N-octyl-1,3,4-oxadiazol-2-amine]: the MIC in the assay with Mtb 7357/1998 (7357/1998, 336 h) was found to be 0.125 µM (≈ 0.0454 µg/mL); in the assay with Mtb 7357/1998 (7357/1998, 504 h), 0.125 µM (≈ 0.0454 µg/mL); with Mtb 9449/2007 (9449/2007, 336 h), 0.06 µM (≈ 0.0218 µg/mL); with Mtb 9449/2007 (9449/2007, 504 h) it was 0.125 µM (≈ 0.0454 µg/mL); in the assay on Mtb 8666/2010 (8666/2010, 336 h), 0.06 µM (≈ 0.0218 µg/mL); with Mtb 8666/2010 (8666/2010, 504 h), 0.125 µM (≈ 0.0454 µg/mL). Moreover, the MIC with Mtb 234/2005 (234/2005, 336 h) is 0.125 µM (≈ 0.0454 µg/mL); in the assay with Mtb 234/2005 (234/2005, 504 h), 0.125 µM (≈ 0.0454 µg/mL); with Mtb Praha 4 (PRAHA4, 336 h), 0.125 µM (≈ 0.0454 µg/mL); in the assay with Mtb Praha 4 (PRAHA4, 504 h), 0.125 µM (≈ 0.0454 µg/mL); in the assay with Mtb Praha 131 (PRAHA131, 336 h), 0.125 µM (≈ 0.0454 µg/mL); with Mtb Praha 131 (PRAHA131, 504 h), 0.125 µM (≈ 0.0454 µg/mL). The MIC in the assay with Mtb Praha 1 (PRAHA1, 336 h) turned out to be 0.125 µM (≈ 0.0454 µg/mL); in the assay with Mtb Praha 1 (PRAHA1, 504 h), 0.125 µM (≈ 0.0454 µg/mL).
Regarding `CCCCCCCCCCCCCNc1nnc(-c2cc([N+](=O)[O-])cc([N+](=O)[O-])c2)o1` [Compound 5m, 5-(3,5-Dinitrophenyl)-N-tridecyl-1,3,4-oxadiazol-2-amine], the MIC was determined as 0.25 µM (≈ 0.108 µg/mL) in the assay on Mtb 7357/1998 (7357/1998, 336 h); 0.25 µM (≈ 0.108 µg/mL) with Mtb 7357/1998 (7357/1998, 504 h); 0.06 µM (≈ 0.026 µg/mL) in the assay on Mtb 9449/2007 (9449/2007, 336 h); 0.125 µM (≈ 0.0542 µg/mL) with Mtb 9449/2007 (9449/2007, 504 h); 0.06 µM (≈ 0.026 µg/mL) with Mtb 8666/2010 (8666/2010, 336 h); 0.125 µM (≈ 0.0542 µg/mL) in the assay on Mtb 8666/2010 (8666/2010, 504 h). The MIC in the assay on Mtb 234/2005 (234/2005, 336 h) was determined as 0.125 µM (≈ 0.0542 µg/mL); with Mtb 234/2005 (234/2005, 504 h), 0.125 µM (≈ 0.0542 µg/mL); in the assay on Mtb Praha 4 (PRAHA4, 336 h) it was 0.06 µM (≈ 0.026 µg/mL); in the assay on Mtb Praha 4 (PRAHA4, 504 h) it was 0.125 µM (≈ 0.0542 µg/mL); in the assay on Mtb Praha 131 (PRAHA131, 336 h), 0.125 µM (≈ 0.0542 µg/mL); in the assay on Mtb Praha 131 (PRAHA131, 504 h) it was 0.125 µM (≈ 0.0542 µg/mL). Besides, the MIC is 0.125 µM (≈ 0.0542 µg/mL) in the assay on Mtb Praha 1 (PRAHA1, 336 h) and 0.125 µM (≈ 0.0542 µg/mL) in the assay with Mtb Praha 1 (PRAHA1, 504 h).
